Reference: patent US8163777B2, “Benzimidazolyl-pyridine compounds for inflammation and immune-related uses” (Synta Pharmaceuticals Corp., priority 2006, dated 2012)

Test system: IL-2 production
Assay: Inhibition of IL-2 production in PHA-activated Jurkat cells (ELISA)
Format: cell-based
Settings: Homo sapiens, PHA 2.5 μg/mL, 20 hours
Description: Jurkat cells were placed in a 96 well plate (0.5 million cells per well in 1% FBS medium) then test compounds of this invention were added at different concentrations. After 10 minutes, the cells were activated with PHA (final concentration 2.5 μg/mL) and incubated for 20 hours at 37° C. under CO2. The final volume was 200 μL. Following incubation, the cells were centrifuged and the supernatants collected and stored at −70° C. prior to assaying for IL-2 production. A commercial ELISA kit (IL-2 Eli-pair, Diaclone Research, Besancon, France) was used to detect production of IL-2, from which dose response curves were obtained. The IC50 value was calculated as the concentration at which 50% of maximum IL-2 production after stimulation was inhibited versus a non-stimulation control.

[1] = bin given with mixed units 500 nM-1 μM

IC50 (binned values) [µM] | IC50 [1] [µM] | Compound
0.1 to 0.5 |  | O=C(Nc1ccc(-n2c(C(F)(F)F)nc3ccccc32)c(Cl)c1)c1cccc(F)c1F [Compound 25, 2,3-Difluoro-N-[2-.chloro-4-(2-trifluoromethyl-benzoimidazol-1-yl)-phenyl]-benzamide]
 | 0.5 to 1 | O=C(Nc1ccc(-n2c(C(F)(F)F)nc3ccccc32)nc1)c1cc(F)ccc1F [Compound 41, 2,5-Difiuoro-N-[2-(2-trifluoromethyl-benzoimidazol-1-yl)-pyrid-5-yl]-benzamide]
 | 0.5 to 1 | Cc1cc2nc(C(F)(F)F)n(-c3ccc(NC(=O)c4cccc(F)c4F)cc3)c2cc1C [Compound 42, 2,3-Difluoro-N-[4-(2-trifluoromethyl-5,6-dimethyl-benzoimidazol-1-yl)-phenyl]-benzamide]
 | 0.5 to 1 | Nc1ccc(C(=O)Nc2ccc(-n3c(C(F)(F)F)nc4ccccc43)cc2)c(F)c1F [Compound 43, 2,3-Difluoro-4-amino-N-[4-(2-trifluoromethyl-benzoimidazol-1-yl)-phenyl]-benzamide]
 | 0.5 to 1 | O=C(Nc1ccc(-n2c(C(F)(F)F)nc3cccnc32)cc1)c1cccc(F)c1F [Compound 44, 2,3-Difluoro-N-[4-(2-trifiuoromethyl-imidazo[4,5-b]pyrid-3-yl)-phenyl]-benzamide]
 | 0.5 to 1 | O=C(Nc1ccc(-n2c(C(F)(F)F)nc3ccccc32)cc1)c1cccnc1 [Compound 45, N-[4-(2-trifiuoromethyl-benzoimidazol-1-yl)-phenyl]-nicotinamide]
 | 0.5 to 1 | O=C(Nc1cccc(F)c1F)c1ccc(-n2c(C(F)(F)F)nc3ccccc32)cc1 [Compound 46, N-(2,3-difluorophenyl)-4-(2-trifluoromethyl-benzoimidazol-1-yl)-benzamide]
 | 0.5 to 1 | N#C/C(=C\c1ccc(-n2c(C(F)(F)F)nc3ccccc32)cc1)c1cccc(F)c1F [Compound 47, 1-(2,3-difluoro-phenyl)-3-[4-(2-trifluoromethyl-benzoimidazol-1-yl)-phenyl]-acrylonitrile]
 | 0.5 to 1 | N#C/C(=C\c1ccc(-n2c(C(F)(F)F)nc3ccccc32)cc1)c1cc(F)ccc1F [Compound 48, 1-(2,5-difluoro-phenyl)-3-[4-(2-trifluoromethyl-benzoimidazol-1-yl)-phenyl]-acrylonitrile]
 | 0.5 to 1 | O=C(Nc1ccc(-n2c(C(F)(F)F)nc3cccnc32)cc1)c1cc(F)ccc1F [Compound 56, 2,5-Difluoro-N-[4-(2-trifluoromethyl-imidazo[4,5-b]pyrid-3-yl)-phenyl]-benzamide]
> 1 |  | Cc1nc2ccccc2n1-c1ccc(NC(=O)c2cccc(F)c2F)cc1 [Compound 59, 2,3-Difluoro-N-[4-(2-methyl-benzoimidazol-1-yl)-phenyl]-benzamide]
 | 0.5 to 1 | COc1ccc2c(c1)nc(C(F)(F)F)n2-c1ccc(NC(=O)c2cccc(C(F)(F)F)c2)cc1 [Compound 91, 3-Trifluoromethyl-N-[4-(2-trifluoromethyl-5-methoxy-benzoimidazol-1-yl)-phenyl]-benzamide]
 | 0.5 to 1 | COc1ccc(CC(=O)Nc2ccc(-n3c(C(F)(F)F)nc4cc(OC)ccc43)cc2)cc1 [Compound 92, 2-(4-Methoxy-phenyl)-N-[4-(2-trifluoromethyl-5-methoxy-benzoimidazol-1-yl)-phenyl]-acetamide]
 | 0.5 to 1 | CC(=O)Nc1ccc2nc(C(F)(F)F)n(-c3ccc(NC(=O)c4cccc(F)c4F)cc3)c2c1 [Compound 93, 2,3-Difluoro-N-[4-(2-trifluoromethyl-6-acetylamino-benzoimidazol-1-yl)-phenyl]-benzamide]
 | 0.5 to 1 | COc1ccc2c(c1)nc(C(F)(F)F)n2-c1ccc(NC(=O)Cc2cccs2)cc1 [Compound 94, 2-(Thien-2-yl)-N-[4-(2-trifluoromethyl-5-methoxy-benzoimidazol-1-yl)-phenyl]-acetamide]
 | 0.5 to 1 | COc1ccc2c(c1)nc(C(F)(F)F)n2-c1ccc(NC(=O)Cc2ccccc2)cc1 [Compound 95, 2-phenyl-N-[4-(2-trifluoromethyl-5-methoxy-benzoimidazol-1-yl)-phenyl]-acetamide]
> 1 |  | CCNc1ccc(-n2c(C(F)(F)F)nc3cc(OC)ccc32)nc1 [Compound 162, Ethyl-[6-(5-methoxy-2-trifluoromethyl-benzoimidazol-1-yl)-pyridin-3-yl]-amine]
< 0.1 |  | COc1ccc2c(c1)nc(C(F)(F)F)n2-c1ccc(NC(=O)c2c(F)cccc2F)nc1 [Compound 163, 2,6-difluoro-N-(5-(5-methoxy-2-(trifluoromethyl)-1H-benzo[d]imidazol-1-yl)pyridin-2-yl)benzamide]
> 1 |  | COc1ccc2c(c1)nc(C(F)(F)F)n2-c1ccc(NC(C)=O)nc1 [Compound 164, N-[5-(5-Methoxy-2-trifluoromethyl-benzoimidazol-1-yl)-pyridin-2-yl]-acetamide]

IC50 (binned values) [µM] | IC50 [1] [µM] | Compound
0.1 to 0.5 |  | CCCCNc1ccc(-n2c(C(F)(F)F)nc3cc(OC)ccc32)cn1 [Compound 165, Butyl[5-(5-methoxy-2-trifluoromethyl-benzoimidazol-1-yl)-pyridin-2-yl]-amine]
0.1 to 0.5 |  | COc1ccc2c(c1)nc(C(F)(F)F)n2-c1ccc(NC(=O)c2ccc(C#N)cc2)nc1 [Compound 166, 4-Cyano-N-[5-(5-methoxy-2-trifluoromethyl-benzoimidazol-1-yl)-pyridin-2-yl]-benzamide]
0.1 to 0.5 |  | CCCC(=O)Nc1ccc(-n2c(C(F)(F)F)nc3cc(OC)ccc32)cn1 [Compound 167, N-[5-(5-Methoxy-2-trifluoromethyl-benzoimidazol-1-yl)-pyridin-2-yl]-butyramide]
0.1 to 0.5 |  | CCC(C)C(=O)Nc1ccc(-n2c(C(F)(F)F)nc3cc(OC)ccc32)cn1 (centres unmarked) [Compound 168, N-[5-(5-Methoxy-2-trifluoromethyl-benzoimidazol-1-yl)-pyridin-2-yl]-2-methyl-butyramide]
 | 0.5 to 1 | COc1ccc2c(c1)nc(C(F)(F)F)n2-c1ccc(NC(=O)C2CCC2)nc1 [Compound 169, Cyclobutanecarboxylic acid [5-(5-methox-2-trifluoromethyl-benzoimidazol-1-yl)-pyridin-2-yl]-amide]
0.1 to 0.5 |  | COc1ccc2c(c1)nc(C(F)(F)F)n2-c1ccc(NC(=O)c2ccc(F)cc2)nc1 [Compound 170, 4-Fluoro-N-[5-(5-methoxy-2-trifluoromethyl-benzoimidazol-1-yl)-pyridin-2-yl]-benzamide]
 | 0.5 to 1 | COc1ccc2c(c1)nc(C(F)(F)F)n2-c1ccc(NC(=O)c2ccc(Cl)cc2)nc1 [Compound 171, 4-Chloro-N-[5-(5-methoxy-2-trifluoromethyl-benzoimidazol-1-yl)-pyridin-2-yl]-benzamide]
> 1 |  | COc1ccc2c(c1)nc(C(F)(F)F)n2-c1ccc(NC(=O)C2CC2)nc1 [Compound 172, Cyclopropanecarboxylic acid [5-(5-methoxy-2-trifluoromethyl-benzoimidazol-1-yl)-pyridin-2-yl]-amide]
< 0.1 |  | COc1ccc2c(c1)nc(C(F)(F)F)n2-c1ccc(NC(=O)c2c(F)cccc2Cl)nc1 [Compound 173, 2-Chloro-6-fluoro-N-[5-(5-methoxy-2-trifluoromethyl-benzoimidazol-1-yl)-pyridin-2-yl]-benzamide]
< 0.1 |  | COc1ccc2c(c1)nc(C(F)(F)F)n2-c1ccc(NC(=O)c2cccc(Cl)c2Cl)nc1 [Compound 174, 2,3-Dichloro-N-[5-(5-methoxy-2-trifluoromethyl-benzoimidazol-1-yl)-pyridin-2-yl]-benzamide]
< 0.1 |  | COc1ccc2c(c1)nc(C(F)(F)F)n2-c1ccc(NC(=O)c2ccc(F)cc2F)nc1 [Compound 175]
< 0.1 |  | COc1ccc2c(c1)nc(C(F)(F)F)n2-c1ccc(NC(=O)c2ccc(Cl)cc2Cl)nc1 [Compound 176, 2,4-Dichloro-N-[5-(5-methoxy-2-trifluoromethyl-benzoimidazol-1-yl)-pyridin-2-yl]-benzamide]
0.1 to 0.5 |  | COc1ccc2c(c1)nc(C(F)(F)F)n2-c1ccc(NC(=O)c2ccc(Cl)cc2F)nc1 [Compound 177, 4-Chloro-2-fluoro-N-[5-(5-methoxy-2-trifluoromethyl-benzoimidazol-1-yl)-pyridin-2-yl]-benzamide]
< 0.1 |  | COc1ccc2c(c1)nc(C(F)(F)F)n2-c1ccc(NC(=O)c2ccccc2Cl)nc1 [Compound 178, 2-Chloro-N-[5-(5-methoxy-2-trifluoromethyl-benzoimidazol-1-yl)-pyridin-2-yl]-benzamide]
0.1 to 0.5 |  | COc1ccc2c(c1)nc(C(F)(F)F)n2-c1ccc(NC(=O)c2cccc(Cl)c2)nc1 [Compound 179, 3-Chloro-N-[5-(5-methoxy-2-trifluoromethyl-benzoimidazol-1-yl)-pyridin-2-yl]-benzamide]
< 0.1 |  | COc1ccc2c(c1)nc(C(F)(F)F)n2-c1ccc(NC(=O)c2ccccc2Br)nc1 [Compound 180, 2-Bromo-N-[5-(5-methoxy-2-trifluoromethyl-benzoimidazol-1-yl)-pyridin-2-yl]-benzamide]
> 1 |  | COc1ccc2c(c1)nc(C(F)(F)F)n2-c1ccc(NC(=O)c2cccc(I)c2)nc1 [Compound 181, 3-Iodo-N-[5-(5-methoxy-2-trifluoromethyl-benzoimidazol-1-yl)-pyridin-2-yl]-benzamide]
 | 0.5 to 1 | COc1ccc2c(c1)nc(C(F)(F)F)n2-c1ccc(NC(=O)c2ccc(I)cc2)nc1 [Compound 182, 4-Iodo-N-[5-(5-methoxy-2-trifluoromethyl-benzoimidazol-1-yl)-pyridin-2-yl]-benzamide]

Compound | IC50 (binned values) [µM] | IC50 [1] [µM]
COc1ccc2c(c1)nc(C(F)(F)F)n2-c1ccc(NC(=O)c2cc([N+](=O)[O-])cc([N+](=O)[O-])c2)cc1 [Compound 81, 3,5-Dinitro-N-[4-(2-trifluoromethyl-5-methoxy-benzoimidazol-1-yl)-phenyl]-benzamide] | 0.1 to 0.5 | 
